Data on 2 compounds can be found in publication PMC4230446 (Biochemistry, 2009).

This experiment addresses T1, pyruvate formate-lyase activating enzyme (PFL-AE) (Escherichia coli, UniProt P0A9N4).
T1 sequence (P0A9N4 2-246): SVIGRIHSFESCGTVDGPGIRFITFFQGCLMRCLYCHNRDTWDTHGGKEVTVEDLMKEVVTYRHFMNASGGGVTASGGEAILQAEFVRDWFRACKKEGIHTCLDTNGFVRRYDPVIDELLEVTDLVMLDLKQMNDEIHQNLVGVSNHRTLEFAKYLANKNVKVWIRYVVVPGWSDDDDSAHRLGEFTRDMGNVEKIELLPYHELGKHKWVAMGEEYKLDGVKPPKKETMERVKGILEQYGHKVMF
Description: […] Mössbauer spectroscopy. The experiment is classed as binding. To be noted: 0.64 mM enzyme, [4Fe-4S]2+ state; 4.2 K, 50 mT; unique Fe site of cluster.

On to `Nc1ncnc2c1ncn2[C@@H]1O[C@H](COP(=O)(O)OP(=O)(O)O)[C@@H](O)[C@H]1O` [ADP], for which the “fraction of LOC cluster at 6.4 mM” value is on record as 50 % of total Fe.
In the case of `Nc1ncnc2c1ncn2[C@@H]1O[C@H](COP(=O)(O)O)[C@@H](O)[C@H]1O` [AMP] it was 69 % of total Fe.
